One may read the efflux ratio as a quotient of directional permeabilities that is used to spot active efflux. A word on the IC50: it is the concentration needed to halve the response being measured.

What all share (assay type): in vitro ADME
Series [1] addresses T1, P-gp (human MDR1) (Homo sapiens, UniProt P08183).
T1 construct: host or cells: LLC-PK1 (porcine kidney epithelial cell line)
Description: p-gp (P-glycoprotein) assay, bidirectional transcellular transport in LLC-PK1 and L-MDR1 cells. Conditions: presumably transport efflux ratio (ER). As for the experimental part:
p-gp (P-glycoprotein) Assay
Cell Lines and Vesicles Used for Transport Experiments
The LLC-PK1 cell line (ATCC #CL-101) is a porcine kidney epithelial cell line. The MDR1 (Human multidrug resistance protein 1) transfected cell lines were obtained from Dr. A. Schinkel, The Netherlands Cancer Institute (Amsterdam, The Netherlands). All cell lines were cultured on permeable inserts (Costar, 0.33 cm^2 area, pore size 3.0 μm, low density) at 4.5·10^5 cells/cm^2. Transport measurements were performed at day 4 after seeding. Tightness of the cell monolayer was controlled via the permeability of the extracellular marker lucifer yellow (10 μM). […]
The method used for transport experiments was reported Schwab et al. (see above.). […] Concentrations of substrate in both compartments were determined by scintillation counting (digoxin) or by LC-MS/MS. The extracellular marker (lucifer yellow) was quantified using a spectrafluor plus reader at 430/535 nm (Ex/Em). In each experiment 3 different inserts were used for each condition and a mean was calculated. […]
[formula] where Papp, A, C0, and dQ/dt represent the apparent permeability, the filter surface area, the initial concentration, and the amount transported per time period, respectively. Papp values were calculated on the basis of a single time point (2 h). Transport efflux ratios (ER) were calculated as follows: […]

The target of series [2] is T2, CYP3A4 (Homo sapiens, UniProt P08684).
T2 construct: 0.2 mg/ml pooled human liver microsomes; from tissue; host or cells: pooled human liver microsomes
T2 sequence (P08684 whole entry): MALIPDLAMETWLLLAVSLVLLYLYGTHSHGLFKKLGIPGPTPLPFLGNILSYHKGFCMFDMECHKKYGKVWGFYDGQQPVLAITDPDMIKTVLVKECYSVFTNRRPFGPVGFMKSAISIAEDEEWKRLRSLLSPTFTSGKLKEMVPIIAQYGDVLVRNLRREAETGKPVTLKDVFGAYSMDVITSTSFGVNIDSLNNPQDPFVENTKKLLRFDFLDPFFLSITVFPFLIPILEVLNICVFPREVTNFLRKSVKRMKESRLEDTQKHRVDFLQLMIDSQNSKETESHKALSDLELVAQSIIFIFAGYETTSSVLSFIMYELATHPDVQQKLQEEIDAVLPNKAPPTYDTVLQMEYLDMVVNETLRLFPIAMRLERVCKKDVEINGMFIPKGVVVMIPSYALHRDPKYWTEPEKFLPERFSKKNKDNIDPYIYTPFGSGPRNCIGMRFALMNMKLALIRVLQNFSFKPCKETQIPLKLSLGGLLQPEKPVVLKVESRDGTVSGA
As to the kind of experiment: CYP inhibition assay, human liver microsomes, midazolam 1′hydroxylase. Conditions: pooled human liver microsomes, read-out: CYP IC50 3A4. As to the method: (§1) Inhibition of cytochromes P450 (CYPs) 2C9, 2D6 and 3A4 was assessed using human liver microsomes and CYP-selective substrate metabolism reactions. 50 μl incubations were made up containing (finally) 0.2 mg/ml pooled human liver microsomes, 5 μM substrate (diclofenac for CYP2C9 [4′hydroxylase], dextromethorphan for CYP2D6 [O-demethylase] or midazolam for CYP3A4 [1′hydroxylase]), 0.25 μL DMSO containing test inhibitor and NADPH regenerating system. Test inhibitor concentrations of 50, 16.7, 5.6, 1.9, 0.6 and 0.2 μM were assessed in singlicate. Incubations were prewarmed to 37° C. for 10 minutes before initiation by addition of NADPH regenerating system. Incubations were quenched after 5 minutes (20 minutes for dextromethorphan) by addition of 50 μl cold acetonitrile containing 20 ng/ml 4-OH-diclofenac-13C6, 20 ng/mL dextrorphan-D3 and 20 ng/mL 1-OH-midazolam-D4. Quenched incubates were stored at −20° C. for at least 1 hour before centrifugation (20,000×g, 20 minutes). Supernatants were removed and diluted 1:1 with water prior to analysis using a RapidFire sample injector system and API4000 mass spectrometer. Peak areas for substrate, metabolite and stable-labelled metabolite standard were determined using MS/MS. The peak area ratios between the metabolite generated by the enzymatic reaction and the internal standard were used in subsequent calculations. The percentage of (DMSO) control activity was calculated for each incubate and IC50 values estimated by non-linear regression. Sulfaphenazole, quinidine or ketoconazole were tested in each CYP2C9, CYP2D6 or CYP3A4 inhibition experiment, respectively, to ensure assay sensitivity and reproducibility. (Validated assays for human cytochrome P450 activities, R. L. Walsky and R. S. Obach, Drug Metabolism and Disposition 32: 647-660, 2004. and S. Fowler and H. Zhang, The AAPS Journal, Vol. 10, No. 2, 410-424, 2008.)

Series [3] has as its target T3, CYP2D6 (Homo sapiens, UniProt P10635).
T3 construct: 0.2 mg/ml pooled human liver microsomes; from tissue; host or cells: pooled human liver microsomes
As to the kind of experiment: CYP inhibition assay, human liver microsomes, dextromethorphan O-demethylase. Conditions: pooled human liver microsomes, read-out: CYP IC50 2D6. As for the experimental part: as §1
In general terms: Microsomes from liver hold many membrane-bound enzymes, among them those of drug oxidation.

Series [4] has as its target T4, CYP2C9 (Homo sapiens, UniProt P11712).
T4 construct: 0.2 mg/ml pooled human liver microsomes; from tissue; host or cells: pooled human liver microsomes
As to the kind of experiment: CYP inhibition assay, human liver microsomes, diclofenac 4′hydroxylase. Conditions: pooled human liver microsomes, read-out: CYP IC50 2C9. As for the experimental part:
as §1

T1 sequence (P08183 whole entry): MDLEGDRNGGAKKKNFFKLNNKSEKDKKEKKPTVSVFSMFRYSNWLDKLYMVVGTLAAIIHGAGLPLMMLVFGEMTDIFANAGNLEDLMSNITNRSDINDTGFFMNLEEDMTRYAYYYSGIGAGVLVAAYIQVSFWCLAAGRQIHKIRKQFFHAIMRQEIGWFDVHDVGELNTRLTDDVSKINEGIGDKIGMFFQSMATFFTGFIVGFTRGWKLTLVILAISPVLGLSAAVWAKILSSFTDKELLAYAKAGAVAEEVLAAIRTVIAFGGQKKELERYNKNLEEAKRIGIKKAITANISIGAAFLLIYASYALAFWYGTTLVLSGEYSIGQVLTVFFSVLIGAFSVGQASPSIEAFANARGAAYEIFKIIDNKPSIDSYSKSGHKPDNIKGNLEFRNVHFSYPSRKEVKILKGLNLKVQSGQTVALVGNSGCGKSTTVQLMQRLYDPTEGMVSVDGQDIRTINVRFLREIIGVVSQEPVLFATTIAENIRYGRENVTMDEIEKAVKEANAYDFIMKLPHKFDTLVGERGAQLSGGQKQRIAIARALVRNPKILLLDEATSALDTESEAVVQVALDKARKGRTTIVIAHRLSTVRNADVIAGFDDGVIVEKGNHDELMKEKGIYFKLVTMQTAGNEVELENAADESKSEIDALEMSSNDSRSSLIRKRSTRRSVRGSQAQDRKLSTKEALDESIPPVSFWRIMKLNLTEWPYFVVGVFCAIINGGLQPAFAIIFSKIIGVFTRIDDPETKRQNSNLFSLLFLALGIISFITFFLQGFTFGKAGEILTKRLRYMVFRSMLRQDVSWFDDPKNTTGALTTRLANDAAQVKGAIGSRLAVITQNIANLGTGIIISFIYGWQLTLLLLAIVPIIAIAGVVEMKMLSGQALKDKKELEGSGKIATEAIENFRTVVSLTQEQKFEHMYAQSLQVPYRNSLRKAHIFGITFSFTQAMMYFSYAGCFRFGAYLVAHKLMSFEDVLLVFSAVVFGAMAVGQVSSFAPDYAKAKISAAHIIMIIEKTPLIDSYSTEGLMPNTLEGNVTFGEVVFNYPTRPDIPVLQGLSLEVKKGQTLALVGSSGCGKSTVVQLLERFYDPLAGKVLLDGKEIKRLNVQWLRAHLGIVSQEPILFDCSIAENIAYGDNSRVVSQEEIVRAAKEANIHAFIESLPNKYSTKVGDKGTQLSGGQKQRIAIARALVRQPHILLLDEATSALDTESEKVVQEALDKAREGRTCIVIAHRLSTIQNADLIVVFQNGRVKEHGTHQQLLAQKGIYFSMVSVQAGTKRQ
T3 sequence (P10635 whole entry): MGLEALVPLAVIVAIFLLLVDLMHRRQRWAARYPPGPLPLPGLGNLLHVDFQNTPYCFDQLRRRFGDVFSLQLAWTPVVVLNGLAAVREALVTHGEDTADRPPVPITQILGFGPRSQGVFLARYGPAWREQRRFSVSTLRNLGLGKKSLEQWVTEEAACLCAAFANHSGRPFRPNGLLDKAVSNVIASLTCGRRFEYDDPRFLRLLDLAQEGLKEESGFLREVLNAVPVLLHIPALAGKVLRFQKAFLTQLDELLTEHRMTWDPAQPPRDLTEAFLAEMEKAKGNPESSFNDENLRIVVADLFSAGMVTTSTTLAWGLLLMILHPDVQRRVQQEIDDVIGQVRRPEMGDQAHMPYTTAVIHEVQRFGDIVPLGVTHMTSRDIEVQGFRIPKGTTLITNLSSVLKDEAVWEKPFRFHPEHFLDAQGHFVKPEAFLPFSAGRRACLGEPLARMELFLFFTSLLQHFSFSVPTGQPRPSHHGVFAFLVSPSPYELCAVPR
T4 sequence (P11712 whole entry): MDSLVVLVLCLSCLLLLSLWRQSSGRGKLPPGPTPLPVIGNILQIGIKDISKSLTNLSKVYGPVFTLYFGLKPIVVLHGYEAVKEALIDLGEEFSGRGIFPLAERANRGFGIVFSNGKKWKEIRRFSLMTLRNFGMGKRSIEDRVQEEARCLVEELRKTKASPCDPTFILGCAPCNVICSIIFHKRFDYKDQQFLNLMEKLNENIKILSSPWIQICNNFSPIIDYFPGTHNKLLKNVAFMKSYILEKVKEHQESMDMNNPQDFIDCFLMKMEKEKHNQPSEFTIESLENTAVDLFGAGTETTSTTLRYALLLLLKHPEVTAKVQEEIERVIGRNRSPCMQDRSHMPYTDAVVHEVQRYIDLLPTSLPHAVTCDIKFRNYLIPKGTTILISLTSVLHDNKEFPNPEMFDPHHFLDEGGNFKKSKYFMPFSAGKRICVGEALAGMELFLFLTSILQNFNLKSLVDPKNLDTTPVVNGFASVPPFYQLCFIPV

On to `CC1(c2cccc(-c3cc(Cl)cc(Cl)c3)c2)COCC(N)=N1` (centres unmarked) [Example 32, 5-(3′,5′-Dichloro-biphenyl-3-yl)-5-methyl-5,6-dihydro-2H-[1,4]oxazin-3-ylamine], for which the efflux ratio at 2 h in series [1] was found to be 1.1. For the same compound, the 50% inhibitory concentration (IC50) was over 50 µM in series [2], over 50 µM in series [3] and 3.7 µM in series [4].

Regarding `CC1(c2cc(-c3cncnc3)ccc2F)COCC(N)=N1` (centres unmarked) [Example 36, 5-(2-Fluoro-5-pyrimidin-5-yl-phenyl)-5-methyl-5,6-dihydro-2H-[1,4]oxazin-3-ylamine], the efflux ratio at 2 h in series [1] was determined as 11. The IC50 in series [2] was over 50 µM; in series [3], 41 µM; in series [4], over 50 µM.

Values taken from patent US8399459B2, “1,4 oxazines as BACE1 and/or BACE2 inhibitors” (Hoffmann-La Roche Inc., priority 2011, dated 2013).
